Measurements as given in patent US10668039B2, “Methods for treatment of adenoid cystic carcinoma” (THE CHILDREN'S MEDICAL CENTER CORPORATION, priority 2016, dated 2020).
“Also recorded” adds a separate entry of the source.

Columns and labels:
ACCx6 = test: ACC xenotransplantation trial, ACCx6; assay type: in vivo, nude mice; conditions: oral 0.2 mL flat dose: ATRA 4 mg/mL, isotretinoin 30 mg/mL, fenretinide 40 mg/mL
Procedure: (§1) Xenograft experiments: To generate ACC xenografts, 1×10^6 viable ACC cells were injected into the flank of female nude (Foxn1nu) mice for in vivo drug testing of ACCx6, ACCx9, and ACCx11 lines. Once tumors were visible, the mice were randomized to receive vehicle control or drug until reaching a […] tumor volume of 1,000 mm3. The mice in each group were treated with an oral flat dose five times weekly (po qdx5) for four cycles (two days off between cycles). The exact dosing was determined based on an initial MTD tolerability study and published literature reports. Five mice per group were treated for ACCx6 and ACCx9, and four mice per group were treated for ACCx11 (five mice in the control ACCx11 group), and the tumor volumes were quantified. Mice were treated with a flat dose of 0.2 mL orally of: 30 mg/mL isotretinoin; 40 mg/mL fenretinide; 4 mg/mL ATRA for ACCx6 and ACCx11 or 3 mg/mL ATRA for ACCx9. Mouse procedures used in this study were approved by the IACUC at South Texas Accelerated Research Therapeutics (San Antonio, Tex.).
(§2) Primagraft experiments: For in vivo drug testing, ACC tumor fragments from host animals were implanted subcutaneously into the flank of nude mice (CRL: ATH/NU). Once tumors reached 125-250 mm3, mice were randomized to receive vehicle or drug diluted in 10:90 DMSO:10% hydroxypropyl-beta-cyclodextrin orally until controls reached a tumor volume endpoint of 1-2 cm3 (4-9 mice per group: x5M1 and x6, 4 treated vs. 9 vehicle controls; x9, 4 treated vs. 5 vehicle controls; x11, 5 treated vs. 8 vehicle controls). Mice were treated with ATRA (ACC x6 and x11: 4 mg/mL, 0.2 mL flat dose; ACC×9: 3 mg/mL, 0.2 mL flat dose) or isotretinoin (30 mg/mL, 0.2 mL flat dose). Tumor growth was monitored and mice weighed twice weekly and studies ended when final group reached tumor volume endpoint. No statistical methods were employed to determine the sample size, and no blinding of investigators was performed. […]

c-myb = test: U937 time course qPCR of c-myb; assay type: cell-based, human; conditions: for myb levels in U937 by qPCR: 1 μM, 6, 24 and 48 hours
Procedure: Cell culture: U937 cells were grown in RPMI 1640 (Life Technologies), 10% heat inactivated FBS, and 1% Penicillin-Streptomycin (Invitrogen). CellTiter-Glo Luminescent Cell Viability Assay (Promega) was performed as per manufacturer's instructions. Cell viability was assessed at day 2.
Quantitative PCR: Total RNA from cells was extracted using Qiagen RNeasy Mini Kit, and random primed cDNA was generated (Invitrogen, SuperScript III First-Strand Synthesis System). The SsoFast EvaGreen (Biorad) method was used to quantify cDNAs of interest, which are represented as the fold change in transcript level. The amount of cDNA starting material for each sample was normalized in relation to species-specific β-actin expression for zebrafish samples, and both gapdh and β-actin expression for human samples. The primer sequences used were zebrafish myb: forward, 5′-[…]-3′ (SEQ ID No:1), reverse, 5′-[…]-3′ (SEQ ID No:2); zebrafish β-actin: forward, 5′-[…]-3′ (SEQ ID No:3), reverse, 5′-[…]-3′ (SEQ ID No:4); human myb: forward, 5′-[…]-3′ (SEQ ID No:5), reverse, 5′-[…]-3′ (SEQ ID No:6); human gapdh: forward, 5′-[…]-3′ (SEQ ID No:7), reverse, 5′-[…]-3′ (SEQ ID No:8); human β-actin: forward, 5′-[…]-3′ (SEQ ID No:9), reverse, 5′-[…]-3′ (SEQ ID No:10).
U937 time course quantitative PCR analysis: U937 cells were plated with 1 μM retinoic acid agonists for the duration indicated. Cells were then collected and RNA was isolated using the RNeasy Plus Mini Kit (Qiagen) as per the manufacturer's instructions. Further processing was done as described in the section above. Samples were normalized to β-actin gene. Human primers used (forward and reverse respectively): actin, 5′-[…]-3′ (SEQ ID No:9) and 5′-[…]-3′ (SEQ ID No:10); c-myb, 5′-[…]-3′ (SEQ ID No:5) and 5′-[…]-3′ (SEQ ID No:6).

ACCx9 = test: ACC xenotransplantation trial, ACCx9; assay type: in vivo, nude mice; conditions: oral 0.2 mL flat dose: ATRA 3 mg/mL, isotretinoin 30 mg/mL, fenretinide 40 mg/mL
Procedure: as §1, §2

ACCx11 = test: ACC xenotransplantation trial, ACCx11; assay type: in vivo, nude mice; conditions: for tumor growth inhibition ACCx11: oral 0.2 mL flat dose: ATRA 4 mg/mL, isotretinoin 30 mg/mL, fenretinide 40 mg/mL
Procedure: as §1
Primagraft experiments: For in vivo drug testing, ACC tumor fragments from host animals were implanted subcutaneously into the flank of nude mice (CRL: ATH/NU). Once tumors reached 125-250 mm3, mice were randomized to receive vehicle or drug diluted in 10:90 DMSO:10% hydroxypropyl-beta-cyclodextrin orally until controls reached a tumor volume endpoint of 1-2 cm3 (4-9 mice per group: x5M1 and x6, 4 treated vs. 9 vehicle controls; x9, 4 treated vs. 5 vehicle controls; x11, 5 treated vs. 8 vehicle controls). Mice were treated with ATRA (ACC x6 and x11: 4 mg/mL, 0.2 mL flat dose; ACC×9: 3 mg/mL, 0.2 mL flat dose) or isotretinoin (30 mg/mL, 0.2 mL flat dose). Tumor growth was monitored and mice weighed twice weekly and studies ended when final group reached tumor volume endpoint. No statistical methods were employed to determine the sample size, and no blinding of investigators was performed. After long-term tumor growth inhibition studies were completed, the ATRA treated mice stopped receiving treatment and were maintained longer as indicated to monitor tumor maintenance after treatment cessation. For long-term tumor growth inhibition studies, ACC x6, x9, and x11 models were used and primagrafts collected at the completion of the study. Short-term kinetics studies were also undertaken with ACC x9 and x5M1 primagrafts involving 3 day ATRA treatments. All animal procedures used in this study were approved by the IACUC at START, San Antonio, Tex.

Row | SMILES | tumor growth inhibition ACCx6 (ACCx6) [%] | myb levels in U937 by qPCR (c-myb) | time to downregulation of c-myb expression (c-myb; U937 cells, 1 μM ATRA) [h] | tumor growth inhibition ACCx9 (ACCx9) [%] | tumor growth inhibition after discontinuation of treatment, ACC x11 (ACCx11; after approximately 28 days of treatment) | tumor growth inhibition ACCx11 (ACCx11) [%] | myb levels in U937 by qPCR (c-myb; listed as RA p-hydroxyanilide)
1 | CC(C=CC1=C(C)CCCC1(C)C)=CC=C/C(C)=C/C(=O)O [ATRA, (E)-3,7-dimethyl-9-(2,6,6-trimethyl-1-cyclo-hexen-1-yl)-2,4,6,8-nonatetraenoic acid] | 81 | significantly downregulate; also recorded: reduction | ≤ 3 | 78 | sustained | 105 | –
2 | CC1=C(/C=C/C(C)=C/C=C/C(C)=C/C(=O)Nc2ccc(O)cc2)C(C)(C)CCC1 [Fenretinide, retinoic acid p-hydroxyanilide] | 60 | reduction | – | 57 | – | 41 | significantly downregulate
3 | CC1=C(/C=C/C(C)=C/C=C/C(C)=C\C(=O)O)C(C)(C)CCC1 [Isotretinoin, 13-cis-retinoic acid] | 69 | significantly downregulate; also recorded: reduction | – | 95 | – | 94 | –
